Three molecules from US9987296B2, “Compositions including anthocyanin or anthocyanidin for the prevention or treatment of Articular cartilage-associated conditions” (priority 2008, dated 2018) can be followed below.

SMILES strings stand for the structures. Entries after “also recorded” stand apart in the source; their conditions may differ.

Common to all, as to format: cell-based
One data set has as its system IGF-1. Description: Real time RT-PCR for IGF-1 in human chondrocytes. Particulars: for IGF-1 gene expression compared to IL-1 alone: 5 or 50 ug/mL with IL-1, 50 ug/mL alone (FIGS. 3, 4). How it is done:
Chondrocytes were prepared by the enzymatic digestion of knee cartilage, as previously described. (Ahmed S et al., J Nutr 2005 135:20962102). Chondrocytes were plated (1×10^6 cells/mL) in 35 mm culture dishes (BD, Mountain View, Calif.) and cultured in DMEM:F12 (Mediatech, Herndon, Va.) supplemented with 10% FCS and 1% Penn:Strep for 72 hrs at 37° C. and 5% CO2 in a tissue culture incubator. Chondrocytes were serum starved overnight and then exposed to either kuromanin or cyanidin chloride (5 or 50 ug/mL), progrado (2 or 10 ug/mL) alone or in combination in fresh serum-free medium for 1 hr prior to the addition of IL-β.
Total cytoplasmic RNA was prepared from primary cultures of human chondrocytes using a commercially available kit according to the instructions of the manufacturer (Qiagen, Valencia, Calif.). Real time quantitative RT-PCR with internal fluorescent hybridization probes was performed as previously described (Ahmed S et al., ECAM 2005 2:301-8) and the IGF-1 gene expression was quantified using a commercially available Gene Expression Assay kit (Applied Biosystems, CA). Expression of IGF-1 mRNA was normalized to […] mRNA expression. and the results were expressed as fold induction relative to controls.

The subject of data set [1] is human osteoarthritic cartilage explants. Description: Matrix synthesis (35S uptake) in human osteoarthritic cartilage explants. How it is done:
(§1) Bovine cartilage explants (full thickness, 6 mm in diameter) were harvested from fresh femoral condyles. Human osteochondral plugs were harvested using 6 mm osteochondral grafting donor tool (Arthrez 1981-06S, Naples, Fla.) from femoral condyles retrieved from total knee arthroplasty surgery that had been stored in DMEM at 20 degrees C. for less than 24 hours. Full-thickness cartilage explants were cut from the subchondral bone. Each of the 6 mm cartilage disks were divided into 4 equal quadrants. Each quadrant was placed in a different experimental group. This allowed for a paired comparison and controlled for differences in grade of arthritis, thickness of cartilage, cell density, etc. The explants were washed 4-5 times with DMEM with 10% calf serum and were allowed to stabilize for 24 hours in a tissue culture incubator. Explants were then serum starved (0.1% calf serum) for 24 hours prior to commencement of cyanidin chloride treatment.
(§2) 3 mL fresh media with 20 uCi/mL of ^35S-labeled sodium sulfate (NEX0414 Perkin Elmer, Boston, Mass.) (DMEM with 10% CS) was added to each of the explants along with 30 uL of 50 mM stock cyanidin chloride (MW 322.7 g/mole) solution (diluted in DMSO) (Chromadex Inc., Irvine, Calif.) to give the final cyanidin chloride concentration of (200 or 500 uM) in culture. Explants were subjected to cyanidin chloride treatment for 48 hours.
(§3) Radioactive media was aspirated after 48 hours and explants were washed in ice-cold 1×PBS for 10 minutes×3. Each cartilage explant quadrant was blotted dry and was placed in 500 uL of 2 mg/mL Proteinase K (Fisher Scientific, Fair Lawn, N.J.) in TE Buffer solution (10 mM Tris, 1 mM EDTA) and was allowed to rotate at 57 degrees C. for 24 hours in a hybridization oven until completely dissolved. Quantification of ^35S-labeled proteoglycans complexed to alcian blue by rapid filtration in multiwall plates was adopted and modified from Masuda et al Anal. Biochem 1994; 217:167-75. 75 uL of dilution buffer (50 mM Sodium Acetate pH^− 5.8. 0.5% Triton X-100) was added to each well of a 96 well plate (Millipore Multiscreen 96-well filtration system, Millipore, Billerica, Mass.) 25 uL of each digested cartilage explant sample was then loaded followed by 150 uL of 0.2% alcian blue solution (Alcian Blue 8GX electrophoresis grade, Sigma-Aldrich Inc., St. Louis Mo.) and was allowed to rotate for 1 hour at room temperature. The 96-well plate was then placed over a vacuum-manifold to aspirate the contents of the wells through the screen. The 3×200 uL vacuum washes with wash buffer (50 mM sodium acetate pI-I 5.8, 100 mM sodium sulfate, 50 mM MgCl2) were then performed. The 96-well filtration plate was then completely dried at 57 degrees C. for 5 minutes in a hybridization oven and was exposed to storage phosphor screen for 24 hours (Packard Instrument Company Inc., Meriden. Conn.). Phosphorimaging with Cyclone model A431200 (Packard Instrument Company Inc. Meriden, Conn.) was performed to quantify ^35S uptake by proteoglycans. ^35S uptake by proteoglycans in cartilage explants was normalized to DNA by Quant-iT ds DNA Assay Kit (Invitrogen Inc., Carlsbad Calif.).
Reported clinical experiments indicate that 10% dextrose injected in the joint can have a therapeutic effect on osteoarthritis. To test this effect, human osteoarthritic cartilage explants (Grade II) were treated with glucose at physiologic (0.45%) or were treated with supraphysiologic (2.5% and 5%) concentrations with 500 uM cyanidin chloride.

In data set [2] the test system is bovine cartilage explants. Description: Matrix synthesis (35S uptake) in bovine cartilage explants. How it is done: as §1, §2, §3
The effect of cyanidin on bovine cartilage explants was tested. The dose response was also determined. Cartilage explants were treated with 1L-1 (50 ng/mL) for 24 hours. IL-1 reduces matrix synthesis and induces an inflammatory respond similar to osteoarthritis. Explants were then treated with cyanidin chloride at either 200 or 500 uM concentration for 24 hours. Matrix synthesis was monitored by measuring uptake of ^35S.
Bovine explants were initially subjected to IL-1 treatment for 24 hours. Explants were then treated with 500 uM cyanidin chloride in a low glucose (1 g/L) or high glucose concentration (4.5 g/L). […] The higher the glucose concentration increased matrix synthesis by 10%. The cyanidin treatment had small effect under low glucose conditions, but the effect was nearly 20% greater in the high glucose condition.

Data set [3] concerns Human articular chondrocytes. Description: MTT assay. Conditions: human articular chondrocytes in culture, 96 hours. How it is done:
Chondrocytes were isolated from non-arthritic regions of adult human articular cartilage (N=3 donors) and expanded in tissue culture flasks in DMEM supplemented with 10% calf serum.
The following compounds were provided by Chromadex, Inc. and tested from 1 uM to 500 uM:
Human articular chondrocytes were seeded in 96-well culture trays at a density of 5000 cells/well and incubated with the selected concentration of the anthocyanin for 4 days. At the end of the 4 day period, fresh MTT (3(4,5-Dimethylthiazol-2-yl)-2,5-diphenyltetrazolium bromide) was made in PBS and filter sterilized. MTT (25 ul per well) was added to the cell culture and incubated for 5 hours in the CO2 incubator at 37° C. Yellow MIT is reduced to purple formazan in living cells. The supernatant from each well was removed, and 200 Ill of DMSO was added. A multi-channel pipette was used to dissolve crystals. The microplate was placed back into the incubator at 37° C. for 5 min. Formazan levels in each well were read using a spectrophotometer at 550 nm wavelength.

Take `Oc1cc(O)c2cc(O)c(-c3ccc(O)c(O)c3)[o+]c2c1` [Cyanidin chloride]: in the data set on IGF-1 (50 ug/mL dose, duplicate, called anomalous), the IGF-1 gene expression entry is reported as “elevated above control”. Further, the “IGF-1 gene expression compared to IL-1 alone” value in the data set with IGF-1 is reported as “increased IGF-1 gene expression more than kuromanin; also recorded: greater compared to IL-1 alone when treated with cyanidin alone or in combination with IL-1”. Besides, in data set [1] (cyanidin 500 uM combined with glucose), the “synergy of cyanidin and glucose on matrix synthesis” value is recorded as “did not have significant synergistic effect”. Further, the “matrix synthesis (35S uptake)” value is “no effect on matrix synthesis” in data set [1] (human OA Grade II explants, 500 uM at 0.45% glucose); “no effect on human OA explants; also recorded: did not increase matrix synthesis in human OA tissue” in data set [1] (human OA grade II-III explants, 500 uM); “inconsistent effect” in data set [2] (IL-1 50 ng/mL 24 hours, then 200 or 500 uM for 24 hours, listed as Cyanidin); “Initially a dose response was identified but difficult to reproduce” in data set [2] (IL-1 50 ng/mL 24 hours, then 200 or 500 uM for 24 hours, listed as cyanidin); “we could not reproduce this effect in several subsequent experiments” in data set [2] (IL-1 50 ng/mL 24 hours, then 200 or 500 uM for 24 hours, listed as cyanidin chloride); “significantly induce chondroreparative activity; also recorded: increased matrix synthesis the most” in data set [2] (after IL-1, 500 uM combined with high glucose (4.5 g/L)). The “effect on matrix synthesis, greater in high glucose than in low glucose” value in data set [2] (500 uM, high glucose (4.5 g/L), after IL-1) is around 20%. The “effect on matrix synthesis” value in data set [2] (500 uM, low glucose (1 g/L), after IL-1) is recorded as “small effect”. For the same molecule, the non-toxic concentration in data set [3] stood at 100 µM.

`OC[C@H]1O[C@@H](Oc2cc3c(O)cc(O)cc3[o+]c2-c2ccc(O)c(O)c2)[C@H](O)[C@@H](O)[C@@H]1O.[Cl-]` [Kuromanin chloride]: in the data set with IGF-1, the “IGF-1 gene expression compared to IL-1 alone” value was “greater compared to IL-1 alone when treated with kuromanin at high dose”. Further, in the data set on IGF-1 (IL-1 with compound at 5 or 50 ug/mL), the IGF-1 gene expression result is “no further changing in this pattern”. Further, in data set [3], the non-toxic concentration was determined as 100 µM.

For the molecule `O=C[C@H](O)[C@@H](O)[C@H](O)[C@H](O)CO` [glucose], the “matrix synthesis (35S uptake)” value in data set [1] (glucose 0.45% (low, physiologic)) is “stimulate matrix synthesis more than higher concentrations of glucose; also recorded: beneficial effect”; in data set [1] (supraphysiologic glucose (2.5% and 5%)) it was “reduced matrix synthesis; also recorded: suppressed matrix synthesis”. In addition, the “increase of matrix synthesis” value in data set [2] (higher glucose concentration (4.5 g/L vs 1 g/L), after IL-1) is 10%.
